Results reported in patent publication US20180179167A1, “Nrf2 REGULATORS” (GlaxoSmithKline Intellectual Property Development Limited, priority 2015, published 2018).

Tested on: NQO1 specific enzyme activity in BEAS-2B cells
Experiment: BEAS-2B NQO1 MTT Assay
Assay type: cell-based
Details: Homo sapiens, EC50 of NQO1 specific activity induction, 48 hours with compound
Excerpt: NAD(P)H:quinone oxidoreductase 1 (NQO1), also called DT diaphorase, is a homodimeric FAD-containing enzyme that catalyzes obligatory NAD(P)H-dependent two-electron reductions of quinones and protects cells against the toxic and neoplastic effects of free radicals and reactive oxygen species arising from one-electron reductions. The transcription of NQO1 is finely regulated by Nrf2, and thus NQO1 activity is a good marker for Nrf2 activation. On day one, frozen BEAS-2B cells (ATCC) are thawed in a water bath, counted, and re-suspended at a concentration of 250,000 cells/mL. Fifty microliters of cells are plated in 384 well black clear-bottomed plates. Plates are incubated at 37° C., 5% CO2 overnight. On day two, plates are centrifuged and 50 nL of compound or controls are added to the cells. Plates are then incubated at 37° C., 5% CO2 for 48 hours. On day four, medium is aspirated from the plate and crude cell lysates are made by adding 13 uL of 1× Cell Signaling Technologies lysis buffer with 1 Complete, Mini, EDTA-free Protease Inhibitor Tablet (Roche) for each 10 mL of lysis buffer . After lysis plates are incubated for 20 minutes at room temperature. Two microliters of lysate are removed for use in Cell Titer Glo assay (Promega) and MTT cocktail is prepared (Prochaska et. al. 1998) for measurement of NQO1 activity. Fifty microliters of MTT cocktail is added to each well, plate is centrifuged, and analyzed on an Envision plate reader (Perkin Elmer) using Absorbance 570 nm label for 30 minutes. Product formation is measured kinetically and the EC50 of NQO1 specific activity induction is calculated by plotting the change in absorbance (Delta OD/min) versus the log of compound concentration followed by 3-parameter fitting.
EC50s <1 nM (+++++), EC50s 10 nM-1 nM (++++), EC50s 10-100 nM (+++), EC50s 100 nM-1 uM (++), EC50s 1-10 uM (+), EC50s >10 uM (−), or were not determined (ND).

| SMILES | EC50 [nM] |
| --- | --- |
| Cc1c(C(CC(=O)O)c2ccc(Cl)c(CN(C)C(=O)OC(C)(C)C)c2)ccc2c1nnn2C (centres unmarked) [Example 1, 3-[3-({[(tert-Butoxy)carbonyl](methyl)amino}methyl)-4-chlorophenyl]-3-(1,4-dimethyl-1H-1,2,3-benzotriazol-5-yl)propanoic acid] | 100 to 1000 |
| CN(Cc1cc(C(CC(=O)O)c2ccc3c(c2)nnn3C)ccc1Cl)C(=O)OC1CCCC1 (centres unmarked) [Example 2, 3-[4-Chloro-3-({[(cyclopentyloxy)carbonyl](methyl)amino}methyl)phenyl]-3-(1-methyl-1H-1,2,3-benzotriazol-5-yl)propanoic acid] | 1000 to 10000 |
| CCC(C)OC(=O)N(C)Cc1cc(C(CC(=O)O)c2ccc3c(c2)nnn3C)ccc1Cl (centres unmarked) [Example 3, 3-[3-({[(Butan-2-yloxy)carbonyl](methyl)amino}methyl)-4-chlorophenyl]-3-(1-methyl-1H-1,2,3-benzotriazol-5-yl)propanoic acid] | 1000 to 10000 |
| COc1cc(C(CC(=O)O)c2ccc(C)c(CN(C)C(=O)OC(C)(C)C)c2)cc2nnn(C)c12 (centres unmarked) [Example 4, 3-[3-({[(tert-Butoxy)carbonyl](methyl)amino}methyl)-4-methylphenyl]-3-(7-methoxy-1-methyl-1H-1,2,3-benzotriazol-5-yl)propanoic acid] | 1000 to 10000 |
| CN(Cc1cc(C(CC(=O)O)c2ccc3c(c2)nnn3C)ccc1Cl)C(=O)OC1CCCCC1 (centres unmarked) [Example 5, 3-(4-Chloro-3-((((cyclohexyloxy)carbonyl)(methyl)amino)methyl)phenyl)-3-(1-methyl-1H-benzo[d][1,2,3]triazol-5-yl)propanoic acid] | 1000 to 10000 |
| COc1cc(C(CC(=O)O)c2ccc(Cl)c(CN(C)C(=O)OC(C)(C)C)c2)cc2nnn(C)c12 (centres unmarked) [Example 6, 3-(3-(((tert-Butoxycarbonyl)(methyl)amino)methyl)-4-chlorophenyl)-3-(7-methoxy-1-methyl-1H-benzo[d][1,2,3]triazol-5-yl)propanoic acid] | 100 to 1000 |
| Cc1ccc(C(CC(=O)O)c2ccc3c(c2)nnn3C)cc1OCC(=O)N(C)C (centres unmarked) [Example 7, 3-(3-(2-(Dimethylamino)-2-oxoethoxy)-4-methylphenyl)-3-(1-methyl-1H-benzo[d][1,2,3]triazol-5-yl)propanoic acid] | 1000 to 10000 |
| Cc1ccc(C(CC(=O)O)c2ccc3c(nnn3C)c2C)cc1CN(C)C(=O)Oc1ccc([N+](=O)[O-])cc1 (centres unmarked) [Example 8, 3-(1,4-Dimethyl-1H-benzo[d][1,2,3]triazol-5-yl)-3-(4-methyl-3-((methyl((4-nitrophenoxy)carbonyl)amino)methyl)phenyl)propanoic acid] | 1000 to 10000 |
| COc1cc(C(CC(=O)O)c2ccc(Cl)c(CN(C)C(=O)OC3CCCC3)c2)cc2nnn(C)c12 (centres unmarked) [Example 9, 3-(4-Chloro-3-((((cyclopentyloxy)carbonyl)(methyl)amino)methyl)phenyl)-3-(7-methoxy-1-methyl-1H-benzo[d][1,2,3]triazol-5-yl)propanoic acid] | 1000 to 10000 |
| COCC(C)(C)OC(=O)N(C)Cc1cc(C(CC(=O)O)c2ccc3c(nnn3C)c2C)ccc1C (centres unmarked) [Example 10] | 1000 to 10000 |
| CC(=O)N(Cc1cc(C(CC(=O)O)c2ccc3c(nnn3C)c2C)ccc1C)CC1CCCCC1 (centres unmarked) [Example 11, 3-(3-((N-(Cyclohexylmethyl)acetamido)methyl)-4-methylphenyl)-3-(1,4-dimethyl-1H-benzo[d][1,2,3]triazol-5-yl)propanoic acid] | 1000 to 10000 |
| CC(=O)N(Cc1ccccc1)Cc1cc(C(CC(=O)O)c2ccc3c(nnn3C)c2C)ccc1C (centres unmarked) [Example 12, 3-(3-((N-Benzylacetamido)methyl)-4-methylphenyl)-3-(1,4-dimethyl-1H-benzo[d][1,2,3]triazol-5-yl)propanoic acid] | 1000 to 10000 |
| CC(=O)N(Cc1cccc(C)c1)Cc1cc(C(CC(=O)O)c2ccc3c(nnn3C)c2C)ccc1C (centres unmarked) [Example 13, 3-(1,4-Dimethyl-1H-benzo[d][1,2,3]triazol-5-yl)-3-(4-methyl-3-((N-(3-methylbenzyl)acetamido)methyl)phenyl)propanoic acid] | 1000 to 10000 |
| CC(=O)N(Cc1cc(C(CC(=O)O)c2ccc3c(nnn3C)c2C)ccc1C)Cc1cccc(C)c1C (centres unmarked) [Example 14, 3-(1,4-Dimethyl-1H-benzo[d][1,2,3]triazol-5-yl)-3-(3-((N-(2,3-dimethylbenzyl)acetamido)methyl)-4-methylphenyl)propanoic acid] | 1000 to 10000 |
| COc1ccc(CN(Cc2cc(C(CC(=O)O)c3ccc4c(nnn4C)c3C)ccc2C)C(C)=O)cc1 (centres unmarked) [Example 15, 3-(1,4-Dimethyl-1H-benzo[d][1,2,3]triazol-5-yl)-3-(3-((N-(4-methoxybenzyl)acetamido)methyl)-4-methylphenyl)propanoic acid] | 1000 to 10000 |
| CCc1ccc(CN(Cc2cc(C(CC(=O)O)c3ccc4c(nnn4C)c3C)ccc2C)C(C)=O)cc1 (centres unmarked) [Example 16, 3-(1,4-Dimethyl-1H-benzo[d][1,2,3]triazol-5-yl)-3-(3-((N-(4-ethylbenzyl)acetamido)methyl)-4-methylphenyl)propanoic acid] | 1000 to 10000 |
| CCC1CCC(CN(Cc2cc(C(CC(=O)O)c3ccc4c(nnn4C)c3C)ccc2C)C(C)=O)CC1 (centres unmarked) [Example 17, 3-(1,4-Dimethyl-1H-benzo[d][1,2,3]triazol-5-yl)-3-(3-((N-((4-ethylcyclohexyl)methyl)acetamido)methyl)-4-methylphenyl)propanoic acid] | 10 to 100 |
| Cc1ccc(C(CC(=O)O)c2ccc3c(nnn3C)c2C)cc1CN(CC1CCCCC1)C(N)=O (centres unmarked) [Example 18, 3-(3-((1-(Cyclohexylmethyl)ureido)methyl)-4-methylphenyl)-3-(1,4-dimethyl-1H-benzo[d][1,2,3]triazol-5-yl)propanoic acid] | 1000 to 10000 |
| CCC1CCC(CN(Cc2cc(C(CC(=O)O)c3ccc4c(nnn4C)c3C)ccc2C)C(N)=O)CC1 (centres unmarked) [Example 19, 3-(1,4-Dimethyl-1H-benzo[d][1,2,3]triazol-5-yl)-3-(3-((1-((4-ethylcyclohexyl)methyl)ureido)methyl)-4-methylphenyl)propanoic acid] | 1000 to 10000 |
| COc1cc(C(CC(=O)O)c2ccc(C)c(CN(CC3CCCCC3)C(C)=O)c2)cc2nnn(C)c12 (centres unmarked) [Example 20, 3-(3-((N-(Cyclohexylmethyl)acetamido)methyl)-4-methylphenyl)-3-(7-methoxy-1-methyl-1H-benzo[d][1,2,3]triazol-5-yl)propanoic acid] | 100 to 1000 |
| CCC1CCC(CN(Cc2cc(C(c3ccc4c(nnn4C)c3C)C(C)(C)C(=O)O)ccc2C)C(N)=O)CC1 (centres unmarked) [Example 22, 3-(1,4-Dimethyl-1H-benzo[d][1,2,3]triazol-5-yl)-3-(3-((1-((4-ethylcyclohexyl)methyl)ureido)methyl)-4-methylphenyl)-2,2-dimethylpropanoic acid] | 1 to 10 |
| Cc1ccc([C@@H](c2ccc3c(nnn3C)c2C)C(C)(C)C(=O)O)cc1CN(CC1CCCCCC1)C(N)=O [Example 23, (S)-3-(3-((1-(Cycloheptylmethyl)ureido)methyl)-4-methylphenyl)-3-(1,4-dimethyl-1H-benzo[d][1,2,3]triazol-5-yl)-2,2-dimethylpropanoic acid] | 1 to 10 |
| CCC1CCC(O)(CN(Cc2cc([C@@H](c3ccc4c(nnn4C)c3C)C(C)(C)C(=O)O)ccc2C)C(N)=O)CC1 (stereo partly drawn) [Example 24, (S)-3-(1,4-Dimethyl-1H-benzo[d][1,2,3]triazol-5-yl)-3-(3-((1-((4-ethyl-1-hydroxycyclohexyl)methyl)ureido)methyl)-4-methylphenyl)-2,2-dimethylpropanoic acid] | 10 to 100 |
| Cc1ccc([C@@H](c2ccc3c(nnn3C)c2C)C(C)(C)C(=O)O)cc1CN(CC1(O)CCCCCC1)C(N)=O [Example 25, (S)-3-(1,4-Dimethyl-1H-benzo[d][1,2,3]triazol-5-yl)-3-(3-((1-((1-hydroxycycloheptyl)methyl)ureido)methyl)-4-methylphenyl)-2,2-dimethylpropanoic acid] | 100 to 1000 |
| CC(=O)N(Cc1cc(C(c2ccc3c(nnn3C)c2C)C(C)(C)C(=O)O)ccc1C)CC1(O)CCCCC1 (centres unmarked) [Example 26, 3-(1,4-Dimethyl-1H-benzo[d][1,2,3]triazol-5-yl)-3-(3-((N-((1-hydroxycyclohexyl)methyl)acetamido)methyl)-4-methylphenyl)-2,2-dimethylpropanoic acid] | 100 to 1000 |
| CC(=O)N(Cc1cc(C(CC(=O)O)c2ccc3c(nnn3C)c2C)ccc1C)CC1CCCCCC1 (centres unmarked) [Example 27, 3-(3-((N-(Cycloheptylmethyl)acetamido)methyl)-4-methylphenyl)-3-(1,4-dimethyl-1H-benzo[d][1,2,3]triazol-5-yl)propanoic acid] | 100 to 1000 |
